Legend:
[1] = target: T1, human recombinant adrenergic α2A receptor (Homo sapiens, UniProt P08913); experiment: Adrenergic α2A radioligand binding assay ([3H]MK-912); details: compound at 0.1 μM; 1 nM [3H]MK-912; insect Sf9 cells; read-out: Percent Inhibition of ligand binding, Adrenergic (0.1 μM) a2A
T1 construct: expressed in transfected cells; host or cells: insect Sf9 cells
T1 sequence (P08913 1-465): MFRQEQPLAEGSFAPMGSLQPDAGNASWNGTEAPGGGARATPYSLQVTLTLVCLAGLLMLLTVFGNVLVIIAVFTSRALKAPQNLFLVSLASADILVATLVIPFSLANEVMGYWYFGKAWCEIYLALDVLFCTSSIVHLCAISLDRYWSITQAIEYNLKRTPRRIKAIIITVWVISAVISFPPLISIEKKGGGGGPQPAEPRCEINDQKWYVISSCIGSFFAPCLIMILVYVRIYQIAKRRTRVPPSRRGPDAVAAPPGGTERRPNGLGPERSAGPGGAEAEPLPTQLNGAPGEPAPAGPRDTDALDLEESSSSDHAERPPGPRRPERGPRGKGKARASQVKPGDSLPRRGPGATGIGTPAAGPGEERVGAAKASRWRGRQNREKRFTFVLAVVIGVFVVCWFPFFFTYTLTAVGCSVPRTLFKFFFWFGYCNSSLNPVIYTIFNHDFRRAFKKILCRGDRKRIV
Method: To evaluate in radioligand binding assays the activity of compounds of the invention, human recombinant adrenergic α2A receptor expressed in insect Sf9 cells (Uhlen S et al. J. Pharmacol. Exp. Ther. 271:1558, 1994) in a modified Tris-HCl buffer (50 mM Tris-HCl, pH 7.4, 12.5 mM MgCl2, 2 mM EDTA) was used. Compounds of invention were incubated with 1 nM [^3H]MK-912 for 60 min at 25° C. MK912 is (2S-trans)-1,3,4,5′,6,6′,7,12b-octahydro-1′,3′-dimethyl-spiro[2H-benzofuro[2,3-a]quinolizine-2,4′(1′H)-pyrimidin]-2′(3′H)-one hydrochloride Non-specific binding was estimated in the presence of 10 μM WB-4101 (2-(2,6-dimethoxyphenoxyethyl)aminomethyl-1,4-benzodioxane hydrochloride). Receptor proteins were filtered and washed, the filters were then counted to determine [^3H]MK-912 specifically bound.

[2] = target: T2, human recombinant adrenergic α2C receptor (Homo sapiens, UniProt P18825); experiment: Adrenergic α2C radioligand binding assay ([3H]MK-912); details: compound at 0.1 μM; 1 nM [3H]MK-912; insect Sf9 cells; read-out: Percent Inhibition of ligand binding, Adrenergic (0.1 μM) a2C
T2 construct: expressed in transfected cells; host or cells: insect Sf9 cells
T2 sequence (P18825 1-462): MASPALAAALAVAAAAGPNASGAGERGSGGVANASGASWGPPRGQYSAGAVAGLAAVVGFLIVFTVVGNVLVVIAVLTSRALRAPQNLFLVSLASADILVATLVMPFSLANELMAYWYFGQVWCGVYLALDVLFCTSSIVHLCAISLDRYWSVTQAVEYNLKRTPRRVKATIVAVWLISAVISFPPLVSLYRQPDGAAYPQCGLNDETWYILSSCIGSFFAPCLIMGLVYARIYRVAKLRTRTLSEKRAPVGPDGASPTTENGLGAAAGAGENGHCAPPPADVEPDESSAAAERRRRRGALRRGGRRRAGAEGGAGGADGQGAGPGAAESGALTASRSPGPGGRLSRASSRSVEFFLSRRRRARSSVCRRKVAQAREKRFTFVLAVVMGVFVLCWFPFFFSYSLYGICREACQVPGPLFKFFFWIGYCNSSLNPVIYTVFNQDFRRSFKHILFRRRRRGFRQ
Method: To evaluate in radioligand binding assays the activity of compounds of the invention, human recombinant adrenergic α2C receptor expressed in insect Sf9 cells (Uhlen S et al. J. Pharmacol. Exp. Ther. 271:1558, 1994) in a modified Tris-HCl buffer (50 mM Tris-HCl, pH 7.4, 12.5 mM MgCl2, 2 mM EDTA) is used. Compounds of the invention are incubated with 1 nM [^3H]MK-912 for 60 min at 25° C. Non-specific binding is estimated in the presence of 10 μM WB-4101. Receptor proteins are filtered and washed, the filters are then counted to determine [^3H]MK-912 specifically bound. Compounds are screened at 1 μM or lower, using 1% DMSO as vehicle. Compounds of the invention are tested in this biochemical assay and percent inhibition of specific binding is determined.

[3] = target: T3, human recombinant serotonin (5-Hydroxytryptamine) 5-HT5A receptor (Homo sapiens, UniProt P47898); experiment: Serotonin 5-HT5A radioligand binding assay ([3H]LSD); details: compound at 0.1 μM; 1.7 nM [3H]LSD; CHO-K1 cells; read-out: Percent Inhibition of ligand binding, Serotonin (0.1 μM) 5-HT5A
T3 construct: expressed in transfected cells; host or cells: Chinese hamster ovary (CHO-K1) cells
T3 sequence (P47898 whole entry): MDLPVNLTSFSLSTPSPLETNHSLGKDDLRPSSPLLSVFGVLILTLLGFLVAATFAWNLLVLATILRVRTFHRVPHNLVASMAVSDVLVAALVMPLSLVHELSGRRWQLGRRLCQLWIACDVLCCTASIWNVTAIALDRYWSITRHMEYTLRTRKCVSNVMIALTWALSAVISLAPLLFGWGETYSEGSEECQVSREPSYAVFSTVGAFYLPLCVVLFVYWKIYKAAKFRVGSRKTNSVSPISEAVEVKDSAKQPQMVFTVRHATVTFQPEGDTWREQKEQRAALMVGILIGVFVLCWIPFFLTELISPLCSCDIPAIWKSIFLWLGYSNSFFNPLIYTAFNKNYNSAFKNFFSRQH
Method: Compounds of the invention were incubated with 1.7 nM [^3H]Lysergic acid diethylamide (LSD) for 60 min at 37° C. […] Receptor proteins were filtered and washed, the filters were then counted to determine [^3H]LSD specifically bound. Compounds were screened at 1 μM or lower, using 1% DMSO as vehicle. Compounds of the invention were tested in this biochemical assay and percent inhibition of specific binding was determined. Biochemical assay results are presented as the percent inhibition of specific binding in Table 4.

Compound `CC[C@](O)(Cn1c2c(c3cc(C)ccc31)CN(C)CC2)c1ccncc1` [Compound 1-63, (R)-1-(2,8-Dimethyl-3,4-dihydro-1H-pyrido[4,3-b]indol-5(2H)-yl)-2-(pyridine-4-yl)butan-2-ol] has an inhibition at 0.1 µM [1] of 12%, an inhibition at 0.1 µM [2] of 4% and an inhibition at 0.1 µM [3] of 15%.
`CC[C@@](O)(Cn1c2c(c3cc(C)ccc31)CN(C)CC2)c1ccc(F)cc1` [Compound 1-66, (S)-1-(2,8-dimethyl-3,4-dihydro-1H-pyrido[4,3-b]indol-5(2H)-yl)-2-(4-fluorophenyl)butan-2-ol] was tested, and the inhibition at 0.1 µM [1] was 29%, the inhibition at 0.1 µM [2] was 18% and the inhibition at 0.1 µM [3] was 31%.
`CC[C@@](O)(Cn1c2c(c3cc(C)ccc31)CN(C)CC2)c1ccncc1` [Compound 1-62, (S)-1-(2,8-Dimethyl-3,4-dihydro-1H-pyrido[4,3-b]indol-5(2H)-yl)-2-(pyridine-4-yl)butan-2-ol] gave an inhibition at 0.1 µM [1] of 10%, an inhibition at 0.1 µM [2] of -5% and an inhibition at 0.1 µM [3] of 6%.
